In publication PMC7380640, “Development of a brain-permeable peptide nanofiber that prevents aggregation of Alzheimer pathogenic proteins” (PLoS ONE, 2020):
Blank lines part the entries; values can stand above or below the compound they belong to. Where a SMILES comes first, the peptide text is derived from it.

Experiments:
[1] = tested on: rat pheochromocytoma (PC12); settings: cited from earlier work
From the text: (§1) Alzheimer’s disease (AD) is a progressive neurodegenerative disorder and the most common form of dementia characterized by senile plaque (SP), which is the extracellular deposit of amyloidβ(Aβ)aggregates,and neurofibrillary tangle, which is the intracellular accumulation of phosphorylated tau protein [3]. Although highly ordered linear Aβaggregates, known as amyloid fibrils, are the major component of SP and one of the hallmark features of AD, soluble oligomers of aggregates are regarded as more cytotoxic. The therapeutic use of peptide inhibitors of pathological ...

[2] = tested on: Aβ peptides; settings: cited from earlier work
From the text: as §1

[3] = tested on: Aβ (1–42); settings: 100 nM of Aβ (1–42); cited from earlier work
Procedure: The neutral αAC nanofibers suppressed aggregation of Aβ (1–42), without promoting the aggregation of 3RMBDof tau (Fig 2) and cytotoxicity of Aβ (1–42) against PC12 cells (Fig 7). Several brain-permeable low molecular weight compounds that suppress the aggregation of amyloidβ have been proposed as therapeutic drugs for AD [48–55]; unfortunately, the affinity of these compounds for Aβ tends to be low. For example, >100 nM of curcumin is required to inhibit the cytotoxicity of 100 nM of Aβ (1–42).

[4] = molecular target: T1, trypsin (Bos taurus, UniProt P00760); experiment: Proteolytic digestion with trypsin (GPC); format: in vitro ADME; settings: 200 μM peptide or nanofiber, 12 μM trypsin (type XIII, bovine pancreas), 5 mM phosphate 100 mM NaCl pH 7.5, 37°C, GPC peak of FVIFLDVK, A220
T1 construct: purchased type XIII; host or cells: bovine pancreas
T1 sequence (P00760 24-246): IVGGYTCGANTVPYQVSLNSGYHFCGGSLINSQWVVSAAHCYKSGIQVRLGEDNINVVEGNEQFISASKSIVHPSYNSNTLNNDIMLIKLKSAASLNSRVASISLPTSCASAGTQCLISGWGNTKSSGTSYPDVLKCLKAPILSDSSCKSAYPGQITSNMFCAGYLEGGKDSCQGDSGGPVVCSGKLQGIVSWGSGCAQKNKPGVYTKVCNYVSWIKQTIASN
Procedure: The αAC peptides or the neutralαAC nanofiber (200 μM) were incubated with trypsin (12 μM, type XIII from bovine pancreas) in 5 mM phosphate buffer containing 100 mM NaCl (pH 7.5) at 37°C. The molecular mass of the digested peptides were analyzed with MALDI-TOF mass spectroscopy using a BrukerAutoflex Speed instrument. The proteolyzed sample of αAC nanofibers was centrifuged (10,000g for 5 min) to separate the peptide fragments from the nanofibers. The apparent rate of proteolysis of αAC(71–88) was estimated from gel permeation chromatography analysis using a Superdex^TMpeptide 10/300 GL column (GE Healthcare, Piscataway, NJ). Water including 30% acetonitrile and 0.1% TFA was used as the elution solvent.

Compound: DFVIFLDVKHFSPEDLTVK [CPP-fused αAC peptides, cell-penetrating peptide-fused type peptides of the αA-crystallin peptide]
effect on Aβ toxicity [1]: suppress Aβ toxicity
effect on Aβ fibril formation [2]: prevented Aβ fibril formation

Compound: COc1cc(/C=C/C(=O)CC(=O)/C=C/c2ccc(O)c(OC)c2)ccc1O [curcumin]
concentration required to inhibit the cytotoxicity of Aβ (1–42) [3]: > 100 nM

fraction of αAC(71–88) digested (single cleavage) after 24 h proteolysis [4]: ca. 90%
Compound: CC[C@H](C)[C@H](NC(=O)[C@@H](NC(=O)[C@@H](N)Cc1ccccc1)C(C)C)C(=O)N[C@@H](Cc1ccccc1)C(=O)N[C@@H](CC(C)C)C(=O)N[C@@H](CC(=O)O)C(=O)N[C@H](C(=O)N[C@@H](CCCCN)C(=O)N[C@@H](Cc1c[nH]cn1)C(=O)N[C@@H](Cc1ccccc1)C(=O)N[C@@H](CO)C(=O)N1CCC[C@H]1C(=O)N[C@@H](CCC(=O)O)C(=O)N[C@@H](CC(=O)O)C(=O)N[C@@H](CC(C)C)C(=O)N[C@H](C(=O)N[C@H](C(=O)N[C@@H](CCCCN)C(=O)O)C(C)C)[C@@H](C)O)C(C)C [αAC(71–88)] (H-FVIFLDVKHFSPEDLTVK-OH)

Compound: DFVIFLDVKHFSPEDLTVK
effect on toxicity of Aβ in PC12 ([1]; rat pheochromocytoma (PC12)): suppress the toxicity
effect on fibril formation of Aβ peptides [2]: inhibit fibril formation
